One experiment concerns liver abscesses. As to the kind of experiment: 60 Day feeding study, liver abscess scores at slaughter. Format: in vivo, cattle (crossbred steers). The note with it: 60 day study. The source says: (§1) Feeding trials were completed with a randomized block design utilizing 4 treatments and 13 replicates per treatment. The first 20 pens (block 1, 5 replicates per treatment group) were placed first, the second 20 pens (block 2, 5 replicates per treatment group) were placed […], and the last 12 pens (block 3, 3 replicates per treatment group) were placed last. All cattle were housed within one area of the feedyard.
(§2) Crossbred steers (n=4,849) with an average weight of 590 kg+/−19.7 kg of various origins from the High Plains and Midwest were selected from within a northwest Kansas commercial feedyard. All cattle underwent the same receiving protocol and were placed in 200 head pens. All cattle were acclimated to feedlot rations and had been on feed a minimum of 60 days prior to trial enrollment. Starting rations during the initial 60 days included 75 mg/head/day tylosin (Tylan, Elanco Animal Health, Greenfield, Ind.) with 15 g/ton monensin (Rumensin, Elanco Animal Health, Greenfield, Ind.).
(§3) At 60 days of feed, 2-200 head pens were systematically allocated to 4 pens of 100 head. Two pens of 200 head were sorted at the chute into 4-100 head pens at time of terminal implant. Each 200 head pen contributed 50 head to each of the 4 pens that would be eventually allocated to treatment. This was accomplished by systematic allocation of 5 head at a time to each of the trial pens. If 200 head counts were not exactly 100 head/pen, the final allocations were that the number of animals per treatment group were similar. Once the 4-100 head pens (1 replicate) were sorted, the pens of cattle were weighed by pen, a 4% pencil shrink was applied, and pens were randomly assigned to 1 of 4 treatments: (1) Positive control (MT) 75 mg/head/day tylosin (Tylan,® Elanco Animal Health, Greenfield, Ind.) and 185 mg/head/day monensin (Rumensin,® Elanco Animal Health, Greenfield, Ind.); (2) Negative control (NO MT) fed without Rumensin® or Tylan®; (3) Decoquinate (DECO) fed 275 to 325 mg/head/day (Deccox,® Zoetis, Parsippany, N.J.); or (4) 3 g/head/day Yucca schidigera (YS) (Micro-Aid,® DPI Global, Porterville, Calif.). All cattle received an identification tag specific to the trial. Caretakers and processing staff were blinded to treatment.
(§4) At 60±4 days of feed, all pens of cattle were shipped to the same abattoir. Hot carcass weight was collected from the plant via scale on carcass rail. Liver abscess scores were assessed by USDA trained professionals and data were collected by third party trained professionals using the liver scoring system previously described by Brown et al. (1975): 0=no abscesses, A−=2-4 abscesses under 1 inch in diameter, A=1-2 abscesses greater than 1 inch in diameter and A+=abscesses greater than 2 inches in diameter, ruptured abscess, or adhesions to body wall. Yield grade and quality grade data were collected from the abattoir by a third party.
(§5) Continuous variables were analyzed using PROC Glimmix (SAS 9.4, SAS Inst. Inc., Cary, N.C.). Models contained treatment as a fixed effect, block as a random effect, and pen as the experimental unit. Least squares means were compared using the PDIFF function of SAS and the Tukey-Kramer adjustment for multiple comparisons. Statistical significance was determined at P<0.05 with tendencies at 0.06>P<0.10. Liver abscess scores, yield grade, and incidence of Eimeria spss. were converted to pen level frequency percentages prior to analysis.

Experiment [1] in a line: 60 Day feeding study, cattle performance. Format: in vivo, cattle (crossbred steers).
From the text: as §1, §2, §3
All treatment groups received the same base ration (Table 1) that was balanced to provide 14% crude protein DM, […] NEg (Table 1). Rations were prepared using a stationary batcher box (Feeding Systems, Inc., Columbus, Nebr.) and loaded onto mixer/delivery trucks with box-mounted scale (Rotomix Manufacturing, Dodge City, Kans.). Treatment rations were delivered twice daily (0800 and 1300) on separate trucks to prevent cross contamination of treatment rations.
Data on cattle performance were derived from feedlot closeout reports after all pens of cattle were shipped to an abattoir. Daily dry matter intakes were recorded via bunk management personnel and entered into the computerized bunk management system. The average dry matter intake per pen over the 60-day period was retrieved from closeout data. Final body weight was calculated as (carcass weight/0.64). Average daily gain (ADG) was calculated on a pen basis using the equation ((Final body weight−Initial body weight)/days on feed). Feed conversion was calculated by dividing the […], then carcass adjusted G:F was calculated as the reciprocal of feed conversion.
Continuous variables were analyzed using PROC Glimmix (SAS 9.4, SAS Inst. Inc., Cary, N.C.). Models contained treatment as a fixed effect, block as a random effect, and pen as the experimental unit. Least squares means were compared using the PDIFF function of SAS and the Tukey-Kramer adjustment for multiple comparisons. Statistical significance was determined at P<0.05 with tendencies at 0.06>P<0.10. Liver abscess scores, yield grade, and incidence of Eimeria spss. were converted to pen level frequency percentages prior to analysis. […]

Experiment [2] is described as follows: 60 Day feeding study, carcass characteristics. The note with it: 60 day study. Format: in vivo, cattle (crossbred steers).
From the text: as §1, §2, §3, §4, §5

A further experiment relates to Eimeria spp. As to the kind of experiment: 60 Day feeding study, qualitative fecal flotation for Eimeria. Format: in vivo. The note with it: fecal samples at 50 d of feed, samples positive for at least 1+ Eimeria. The text has this:
At 60 days of feed, 2-200 head pens were systematically allocated to 4 pens of 100 head. Two pens of 200 head were sorted at the chute into 4-100 head pens at time of terminal implant. Each 200 head pen contributed 50 head to each of the 4 pens that would be eventually allocated to treatment. This was accomplished by systematic allocation of 5 head at a time to each of the trial pens. If 200 head counts were not exactly 100 head/pen, the final allocations were that the number of animals per treatment group were similar. […]
Freshly voided fecal samples (n=10 per pen) were collected at 50 d of feed for fecal flotation to determine the presence of Eimeria spss. […] Qualitative fecal flotation measurements were measured on a scale of 1+ to 5+ with 1+ having <10 oocysts per slide, 3+ samples having 50-100 oocysts per slide, and 5+ having >500 oocysts/slide. This technique is considered semi-quantitative, with 3+ samples equivalent to approximately 50 oocysts/gram. […]
Continuous variables were analyzed using PROC Glimmix (SAS 9.4, SAS Inst. Inc., Cary, N.C.). […] Statistical significance was determined at P<0.05 with tendencies at 0.06>P<0.10. […]

Each structure is given as a SMILES string.

Take `CCCCCCCCCCOc1cc2c(O)c(C(=O)OCC)cnc2cc1OCC` [DECO, decoquinate]: in the experiment on liver abscesses, the Total liver abscess is given as 31.4^a, b %. Also, the “incidence of liver abscesses compared with other groups” value with liver abscesses (pairwise comparisons of least squares means) is on record as “higher than cattle in the MT group, but lower than cattle in the NO MT group”. In addition, in the experiment with liver abscesses (A = 1-2 abscesses greater than 1 inch), the A liver abscesses came out at 4.1%. The “A+ liver abscesses” value in the experiment with liver abscesses (A+ = abscesses greater than 2 inches, ruptured abscess or adhesions) is given as 19.68^a, b %. Besides, the “A− liver abscesses” value in the experiment with liver abscesses (A− = 2-4 abscesses under 1 inch) is given as 7.6%. In addition, in experiment [1] (60 day study), the “final body weight, rank among treatment groups” value is on record as “intermediate” and the “growth performance compared with MT group” value is “more similar to cattle in the MT group”. In experiment [1] (steers, average daily dry matter intake over 60-day period), the DMI is 12.1^a, b kg. In experiment [1] (steers, last 60 days on feed), the “Carcass adjusted G:F” value was 0.120 kg/kg. Besides, the “Carcass adjusted ADG” value in experiment [1] (steers, last 60 days on feed, pen basis) was 1.47^a, b kg. The “Carcass adjusted final BW” value in experiment [1] (steers, treatment in ration for last 60 days, final BW = carcass weight/0.64) was 681.0^a, b kg. For the same compound, in experiment [2], the Dressing yield is reported as 63.9^a, b % and the “HCW, rank among treatment groups” value was “intermediate”. Moreover, the HCW in experiment [2] (hot carcass weight) was 435.8^a, b kg. Moreover, in experiment [2] (quality grade), the Choice worked out at 83.5%, the Prime is reported as 2.4%, the Select amounted to 11.9% and the Standard is listed as 2.1%. The YG1 in experiment [2] (yield grade 1, pen level frequency) was 7.0^a, c %. Also, the YG2 in experiment [2] (yield grade 2) amounted to 33.8%. This compound also came in with a YG3 in experiment [2] (yield grade 3) of 40.8%. Further, the YG4 in experiment [2] (yield grade 4) was determined as 17.1%. Besides, the YG5 in experiment [2] (yield grade 5) is 1.3%. The same compound displayed an Eimeria spp. incidence with Eimeria spp. of 5.0%.

Source of the values: patent US20220030913A1, “SUPPLEMENT FOR LIVESTOCK” (Hoxie Feedyard, LLC, priority 2020, published 2022).
